Reference: patent US12433903B2 (priority 2021, dated 2025)
“And” between values parts separate entries of the source, which are not always exact repeats. Equal values may be shown once.

Tests used:
[1] = Quantification of CBG and CBG glucuronide in rat plasma and brain after oral gavage; format: in vivo, Sprague-Dawley rat; conditions: for CBG concentration in rat plasma (Day 21) / CBG concentration in rat brain tissue (Day 21) / CBG concentration in rat plasma (Day 1): individual rats; for CBG concentration in rat brain tissue (Day 21) / CBG concentration in rat brain tissue (Day 21), Average: 24 hrs post Rx
Experimental: The purpose of this study was to quantify cannabigerol (CBG) in rat plasma and brain.
Seven- to nine-week-old male and female Sprague-Dawley received either a single dose or once daily dosing for 21 clays of vehicle or CBG at three different dosage levels as shown in the Table below.
Approximately 0.2-0.25 mL blood was collected during the first 24 hours after the single dose, and at multiple times points after the terminal dose for the animals receiving daily dosing for 21 days. Liver, kidney, and colon samples were collected and fixed in 10% NBF for 48 hours, then stored in 70% ethanol at room temperature. Brain samples were collected and flash frozen.
Analytical curves were constructed using non-zero standards with CBG concentration ranging from 0.0025 to 2.500 μg/mL and […] in blank rat plasma samples and 1.0 to 2500 ng/mL in blank brain tissues. A blank sample was used to exclude contamination.
Instrument Used: AB SCIEX QTRAP 4500/Shimadzu Prominence LC

[2] = PK study after oral (PO) or intraperitoneal (IP) administration; format: in vivo, male Sprague Dawley rats; conditions: CBG 30 mg/kg PO or IP; Compound 1 31.5 mg/kg PO; Compound 2 32.7 mg/kg PO
Experimental: This study evaluated the pharmacokinetics of (E)-2-(3,7-dimethylocta-2,6-dien-1-yl)-3-methoxy-5-pentylphenol (1) and (E)-2-(3,7-dimethylocta-2,6-dien-1-yl)-1,3-dimethoxy-5-pentylbenzene (2) following oral (PO) or intraperitoneal (IP) administration to male Sprague Dawley rats.
For the oral formulation the test article was added to the appropriate amount of Maisine and stirred until uniform. Next Labrasol was added to the formulation and allowed to stir until uniform. Finally, water will be slowly added to the stirring formulation to achieve the final volume.
For the IP formulation the test article was added to the appropriate amount of ethanol and stirred until uniform. Next, the appropriate amount of tween-20 was added to the stirred formulation. Finally, the appropriate amount of saline was slowly added to the stirred formulation to achieve the final volume.
Animals were fasted the evening prior to dosing with food returned at 4 h postdose, and the animals weighed on the morning of dose administration.
IP doses were administered via injection to the intraperitoneal region. PO doses were delivered into the stomach via syringe and gavage tube.
Blood was collected from via direct jugular stick or from the tail vein. Blood samples were kept on ice until being centrifuged at 3200 RPM for 10 minutes at ˜5° C. within 1 h of collection. Plasma was split into 2 cryovials in approximately equal volumes (0.05 mLs) and stored at −20° C.±5° C. until shipment.

CCCCCc1cc(O)c(C/C=C(\C)CCC=C(C)C)c(O)c1 [CBG, cannabigerol]
CBG concentration in rat plasma (Day 21) ([1]; CBG 10 mg/kg oral gavage once daily, 15 min post Rx): BLQ (Below Limit of Quantification (2.5 ng/mL))
CBG concentration in rat plasma (Day 21) ([1]; CBG 10 mg/kg oral gavage once daily, 30 min post Rx): BLQ (Below Limit of Quantification (2.5 ng/mL))
CBG concentration in rat plasma (Day 21) ([1]; CBG 10 mg/kg oral gavage once daily, 1 hr post Rx): BLQ (Below Limit of Quantification (2.5 ng/mL)) (4×) and 1.67 ng/mL and 2.75 ng/mL
CBG concentration in rat plasma (Day 21) ([1]; CBG 10 mg/kg oral gavage once daily, 2 hr post Rx): BLQ (Below Limit of Quantification (2.5 ng/mL)) (3×) and 5.6 ng/mL and 9.5 ng/mL and 2.72 ng/mL
CBG concentration in rat plasma (Day 21) ([1]; CBG 10 mg/kg oral gavage once daily, 4 hr post Rx): BLQ (Below Limit of Quantification (2.5 ng/mL)) (4×) and 4.73 ng/mL and 8.49 ng/mL
CBG concentration in rat plasma (Day 21) ([1]; CBG 10 mg/kg oral gavage once daily, 8 hr post Rx): BLQ (Below Limit of Quantification (2.5 ng/mL)) (4×) and 2.55 ng/mL and 4.18 ng/mL
CBG concentration in rat plasma (Day 21) ([1]; CBG 10 mg/kg oral gavage once daily, 24 hr post Rx): BLQ (Below Limit of Quantification (2.5 ng/mL))
CBG concentration in rat brain tissue (Day 21) ([1]; CBG 10 mg/kg oral gavage once daily): BLQ (Below Limit of Quantification (1.0 ng/g))
CBG concentration in rat plasma (Day 1) ([1]; CBG 10 mg/kg oral gavage once, 15 min post Rx): BLQ (Below Limit of Quantification (2.5 ng/mL))
CBG concentration in rat plasma (Day 1) ([1]; CBG 10 mg/kg oral gavage once, 30 min post Rx): BLQ (Below Limit of Quantification (2.5 ng/mL))
CBG concentration in rat plasma (Day 1) ([1]; CBG 10 mg/kg oral gavage once, 1 hr post Rx): 5.3 ng/mL and BLQ (Below Limit of Quantification (2.5 ng/mL)) (2×) and 18.6 ng/mL and 7.3 ng/mL
CBG concentration in rat plasma (Day 1) ([1]; CBG 10 mg/kg oral gavage once, 2 hr post Rx): 10.7 ng/mL and BLQ (Below Limit of Quantification (2.5 ng/mL)) and 14.6 ng/mL and 11.5 ng/mL and 12.0 ng/mL
CBG concentration in rat plasma (Day 1) ([1]; CBG 10 mg/kg oral gavage once, 4 hr post Rx): BLQ (Below Limit of Quantification (2.5 ng/mL))
CBG concentration in rat plasma (Day 1) ([1]; CBG 10 mg/kg oral gavage once, 8 hr post Rx): BLQ (Below Limit of Quantification (2.5 ng/mL))
CBG concentration in rat plasma (Day 1) ([1]; CBG 10 mg/kg oral gavage once, 24 hr post Rx): BLQ (Below Limit of Quantification (2.5 ng/mL))
CBG concentration in rat plasma (Day 21) ([1]; CBG 30 mg/kg oral gavage once daily, 15 min post Rx): BLQ (Below Limit of Quantification (2.5 ng/mL)) (3×) and 14.7 ng/mL and 4.51 ng/mL and 9.12 ng/mL
CBG concentration in rat plasma (Day 21) ([1]; CBG 30 mg/kg oral gavage once daily, 30 min post Rx): BLQ (Below Limit of Quantification (2.5 ng/mL))
CBG concentration in rat plasma (Day 21) ([1]; CBG 30 mg/kg oral gavage once daily, 1 hr post Rx): BLQ (Below Limit of Quantification (2.5 ng/mL))
CBG concentration in rat plasma (Day 21) ([1]; CBG 30 mg/kg oral gavage once daily, 2 hr post Rx): BLQ (Below Limit of Quantification (2.5 ng/mL))
CBG concentration in rat plasma (Day 21) ([1]; CBG 30 mg/kg oral gavage once daily, 4 hr post Rx): BLQ (Below Limit of Quantification (2.5 ng/mL))
CBG concentration in rat plasma (Day 21) ([1]; CBG 30 mg/kg oral gavage once daily, 8 hr post Rx): BLQ (Below Limit of Quantification (2.5 ng/mL))
CBG concentration in rat plasma (Day 21) ([1]; CBG 30 mg/kg oral gavage once daily, 24 hr post Rx): BLQ (Below Limit of Quantification (2.5 ng/mL))
CBG concentration in rat brain tissue (Day 21) ([1]; CBG 30 mg/kg oral gavage once daily): BLQ (Below Limit of Quantification (1.0 ng/g)) (5×) and 43.8 ng/g
CBG concentration in rat plasma (Day 1) ([1]; CBG 30 mg/kg oral gavage once, 15 min post Rx): 3.8 ng/mL and 7.6 ng/mL and BLQ (Below Limit of Quantification (2.5 ng/mL)) (4×)
CBG concentration in rat plasma (Day 1) ([1]; CBG 30 mg/kg oral gavage once, 30 min post Rx): 15.2 ng/mL and BLQ (Below Limit of Quantification (2.5 ng/mL)) (5×)
CBG concentration in rat plasma (Day 1) ([1]; CBG 30 mg/kg oral gavage once, 1 hr post Rx): 22.9 ng/mL and 32.3 ng/mL and 32.5 ng/mL and 1.08 ng/mL and 31.2 ng/mL and 35.9 ng/mL
CBG concentration in rat plasma (Day 1) ([1]; CBG 30 mg/kg oral gavage once, 2 hr post Rx): BLQ (Below Limit of Quantification (2.5 ng/mL)) (2×) and 11.0 ng/mL and 26.6 ng/mL and 78.6 ng/mL and 36.0 ng/mL
CBG concentration in rat plasma (Day 1) ([1]; CBG 30 mg/kg oral gavage once, 4 hr post Rx): 24.5 ng/mL and BLQ (Below Limit of Quantification (2.5 ng/mL)) (2×) and 54.3 ng/mL and 62.1 ng/mL and 48.3 ng/mL
CBG concentration in rat plasma (Day 1) ([1]; CBG 30 mg/kg oral gavage once, 8 hr post Rx): BLQ (Below Limit of Quantification (2.5 ng/mL))
CBG concentration in rat plasma (Day 1) ([1]; CBG 30 mg/kg oral gavage once, 24 hr post Rx): BLQ (Below Limit of Quantification (2.5 ng/mL)) (5×) and 2.75 ng/mL
CBG concentration in rat plasma (Day 21) ([1]; CBG 100 mg/kg oral gavage once daily, 15 min post Rx): BLQ (Below Limit of Quantification (2.5 ng/mL)) (4×) and 41.6 ng/mL
CBG concentration in rat plasma (Day 21) ([1]; CBG 100 mg/kg oral gavage once daily, 30 min post Rx): BLQ (Below Limit of Quantification (2.5 ng/mL)) (3×) and 178.5 ng/mL and 122.5 ng/mL
CBG concentration in rat plasma (Day 21) ([1]; CBG 100 mg/kg oral gavage once daily, 1 hr post Rx): BLQ (Below Limit of Quantification (2.5 ng/mL)) (3×) and 225.5 ng/mL and 206.0 ng/mL
CBG concentration in rat plasma (Day 21) ([1]; CBG 100 mg/kg oral gavage once daily, 2 hr post Rx): 307.0 ng/mL and 201.0 ng/mL and 278.0 ng/mL and BLQ (Below Limit of Quantification (2.5 ng/mL)) and 275.5 ng/mL
CBG concentration in rat plasma (Day 21) ([1]; CBG 100 mg/kg oral gavage once daily, 4 hr post Rx): BLQ (Below Limit of Quantification (2.5 ng/mL)) and 171.0 ng/mL and 129.5 ng/mL and 185.0 ng/mL and 905.0 ng/mL and 417.0 ng/mL
CBG concentration in rat plasma (Day 21) ([1]; CBG 100 mg/kg oral gavage once daily, 8 hr post Rx): BLQ (Below Limit of Quantification (2.5 ng/mL)) (2×) and 215.0 ng/mL and 905.0 ng/mL and 3095.0 ng/mL and 373.0 ng/mL
CBG concentration in rat plasma (Day 21) ([1]; CBG 100 mg/kg oral gavage once daily, 24 hr post Rx): BLQ (Below Limit of Quantification (2.5 ng/mL))
CBG concentration in rat brain tissue (Day 21), Average ([1]; CBG 100 mg/kg oral gavage once daily, female rats): 299.27 ng/g
CBG concentration in rat brain tissue (Day 21) ([1]; CBG 100 mg/kg oral gavage once daily): 53.0 ng/g and 108.0 ng/g and 1460.0 ng/g and 271.0 ng/g and 580.0 ng/g and 46.8 ng/g
CBG concentration in rat brain tissue (Day 21), Average ([1]; CBG 100 mg/kg oral gavage once daily, male rats): 540.33 ng/g
CBG concentration in rat plasma (Day 1) ([1]; CBG 100 mg/kg oral gavage once, 15 min post Rx): BLQ (Below Limit of Quantification (2.5 ng/mL))
CBG concentration in rat plasma (Day 1) ([1]; CBG 100 mg/kg oral gavage once, 30 min post Rx): BLQ (Below Limit of Quantification (2.5 ng/mL))
CBG concentration in rat plasma (Day 1) ([1]; CBG 100 mg/kg oral gavage once, 1 hr post Rx): BLQ (Below Limit of Quantification (2.5 ng/mL))
CBG concentration in rat plasma (Day 1) ([1]; CBG 100 mg/kg oral gavage once, 2 hr post Rx): BLQ (Below Limit of Quantification (2.5 ng/mL))
CBG concentration in rat plasma (Day 1) ([1]; CBG 100 mg/kg oral gavage once, 4 hr post Rx): BLQ (Below Limit of Quantification (2.5 ng/mL)) (4×) and 119.0 ng/mL and 143.0 ng/mL
CBG concentration in rat plasma (Day 1) ([1]; CBG 100 mg/kg oral gavage once, 8 hr post Rx): BLQ (Below Limit of Quantification (2.5 ng/mL))
CBG concentration in rat plasma (Day 1) ([1]; CBG 100 mg/kg oral gavage once, 24 hr post Rx): BLQ (Below Limit of Quantification (2.5 ng/mL))
concentration of CBG in plasma (in words) ([1]; oral gavage 10-100 mg/kg, Day 1 and Day 21): low or below the level of quantitation (BLQ)
CBG in brain (in words) ([1]; oral gavage, Day 21): not detected
first pass metabolism to the glucuronide (in words) ([1]; upon oral administration): very high
glucuronidation / glucuronide formation in plasma (in words) [2]: converted by glucuronidation to CBG-glucoronide
